Test results from article PMC12268261, “The aldehyde (ALD) locus controls C6-aldehyde production in kiwifruit and affects consumer perception of fruit aroma” (Plant Physiology, 2025).
Like-named read-outs stand apart in the source and are kept apart here.

Assays:
AcLOX4c-D1 = target: T1, AcLOX4c-D1 (Actinidia chinensis, UniProt Z9ABF8LHO4); experiment: spectrophotometric, product formation at […] nm; assay type: biochemical; conditions: air-saturated 30 mM Tris-Cl, pH 7.5; substrate inhibition at >50 µM; read-out: Km-app /
T1 construct: N-terminal HIS6-MBP fusion (pMAL-c6T), tag kept; E. coli BL21 (DE3) Codon Plus RIL
T1 sequence (Z9ABF8LHO4 57-898): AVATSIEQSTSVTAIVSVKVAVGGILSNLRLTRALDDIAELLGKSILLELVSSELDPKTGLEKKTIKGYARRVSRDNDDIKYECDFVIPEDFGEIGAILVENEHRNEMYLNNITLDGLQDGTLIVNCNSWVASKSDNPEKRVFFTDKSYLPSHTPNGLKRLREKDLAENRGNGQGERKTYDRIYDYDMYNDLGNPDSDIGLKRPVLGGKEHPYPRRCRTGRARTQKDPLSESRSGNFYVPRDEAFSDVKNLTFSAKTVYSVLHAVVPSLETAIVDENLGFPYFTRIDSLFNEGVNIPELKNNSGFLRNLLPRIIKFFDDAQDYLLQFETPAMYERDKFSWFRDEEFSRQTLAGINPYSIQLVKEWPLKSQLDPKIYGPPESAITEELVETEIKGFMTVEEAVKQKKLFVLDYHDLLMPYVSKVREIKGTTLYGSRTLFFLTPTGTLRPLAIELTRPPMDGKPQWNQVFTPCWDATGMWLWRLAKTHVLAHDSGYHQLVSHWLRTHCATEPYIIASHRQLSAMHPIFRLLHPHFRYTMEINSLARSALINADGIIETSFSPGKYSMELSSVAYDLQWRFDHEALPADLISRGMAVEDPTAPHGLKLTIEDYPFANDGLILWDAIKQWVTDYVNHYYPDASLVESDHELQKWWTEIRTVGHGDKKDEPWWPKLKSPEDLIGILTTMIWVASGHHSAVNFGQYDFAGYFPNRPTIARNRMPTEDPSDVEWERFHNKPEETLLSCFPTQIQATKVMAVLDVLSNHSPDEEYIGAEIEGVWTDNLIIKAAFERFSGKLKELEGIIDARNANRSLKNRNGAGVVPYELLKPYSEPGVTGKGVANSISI

AcLOX4a-D1 = target: T2, AcLOX4a-D1 (Actinidia chinensis, UniProt A0A2R6P8A4); experiment: spectrophotometric, product formation at […] nm; assay type: biochemical; conditions: air-saturated 30 mM Tris-Cl, pH 7.5, read-out: Km-app /
T2 construct: gene CEY00_Acc32486; N-terminal HIS6-MBP fusion (pMAL-c6T), tag kept; E. coli BL21 (DE3) Codon Plus RIL
T2 sequence (A0A2R6P8A4 entry or part of it): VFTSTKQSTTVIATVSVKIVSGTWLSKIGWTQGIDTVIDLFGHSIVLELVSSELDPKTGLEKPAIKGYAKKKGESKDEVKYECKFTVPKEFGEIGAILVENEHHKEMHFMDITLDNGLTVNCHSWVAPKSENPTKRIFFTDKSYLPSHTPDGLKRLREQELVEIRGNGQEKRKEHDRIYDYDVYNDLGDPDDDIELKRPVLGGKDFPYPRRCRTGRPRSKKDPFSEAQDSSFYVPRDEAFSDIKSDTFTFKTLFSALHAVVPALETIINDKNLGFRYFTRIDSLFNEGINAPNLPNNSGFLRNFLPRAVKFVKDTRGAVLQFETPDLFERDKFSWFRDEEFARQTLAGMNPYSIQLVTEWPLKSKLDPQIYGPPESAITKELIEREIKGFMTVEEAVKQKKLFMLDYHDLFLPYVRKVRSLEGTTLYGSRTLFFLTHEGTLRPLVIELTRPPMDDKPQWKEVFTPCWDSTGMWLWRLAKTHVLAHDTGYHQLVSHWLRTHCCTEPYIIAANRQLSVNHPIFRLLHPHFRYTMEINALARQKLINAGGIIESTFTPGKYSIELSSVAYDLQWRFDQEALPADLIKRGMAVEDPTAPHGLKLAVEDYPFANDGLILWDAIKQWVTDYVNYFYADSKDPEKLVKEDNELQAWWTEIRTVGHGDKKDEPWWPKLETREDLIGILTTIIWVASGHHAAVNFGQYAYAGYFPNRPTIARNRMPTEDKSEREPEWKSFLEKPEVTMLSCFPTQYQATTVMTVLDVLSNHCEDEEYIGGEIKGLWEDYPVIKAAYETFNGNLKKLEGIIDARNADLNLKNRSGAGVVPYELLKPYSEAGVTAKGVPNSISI

| SMILES | Km (AcLOX4c-D1) [µM] | Km (AcLOX4a-D1; substrate inhibition at >125 µM) [µM] | Km (AcLOX4a-D1) [µM] |
| --- | --- | --- | --- |
| CCCCC/C=C\C/C=C\CCCCCCCC(=O)O [linoleic acid] | 59.2 | 193 | – |
| CC/C=C\C/C=C\C/C=C\CCCCCCCC(=O)O [α-linolenic acid] | – | – | 133 |
